The source of these data is patent US9970848B2, “Method for evaluating state of horny layer and method for evaluating horny layer improvement effect of cosmetic preparation” (Shiseido Company, Ltd., priority 2013, dated 2018).

The assay concerns stratum corneum sheets obtained from the forearm flexor region. Briefly: Screening of candidate cosmetics for ameliorating effect on the stratum corneum (fluorescein staining after wetting and drying). As to conditions: 3% aqueous solution, 1 h immersion, dried 2 hours at 0% humidity, room temperature; 0.2 w/v % uranin staining; 12 visual fields averaged.

Procedure: Stratum corneum sheets obtained from the forearm flexor region using stratum corneum release tape were affixed to glass slides, and each affixed stratum corneum sheet was immersed for one hour in water (two sheets) as a control and in a 3% erythritol aqueous solution (ER) and a 3% AQUAINPOOL 1407 aqueous solution (AQ), as candidate cosmetics. Next, one of the water-wetted stratum corneum sheets was dried at 0% humidity, room temperature, while the other was dried for 2 hours at 90% humidity, room temperature. The stratum corneum sheets wetted with ER and AQ were dried for 2 hours at 0% humidity, room temperature. […] The taken image was corrected for distortion and digitized using analysis software, and the fluorescent brightness was calculated.

Take `OC[C@@H](O)[C@@H](O)CO` [ER, erythritol]: the “fluorescent brightness compared with the water-wetted stratum corneum sheet (dried at 0% humidity)” value was “about the same”.
